Patent US20240115731A1, “METHOD OF DELIVERING MRNA IN VIVO” (PCI Biotech AS, priority 2021, published 2024)

How the values were obtained:
BL/6 mouse skin [1] = assay: Intradermal naked mRNA delivery, IVIS bio-luminescence imaging of injection sites; type: in vivo, mice; details: Example 5: intradermal, 2 μg mRNA + 0.003 μg TPCS2a, blue light 30 seconds after administration
Procedure: (§1) • 1. 20-24 hours after light (or TPCS2a injection), mice were given an intraperitoneal injection of 3 mg D-Luciferin (200 μl of 15 mg/ml stock). • 2. After approximately 10 minutes the mice were anaesthetized by a subcutaneous injection of Zoletil (15 mg/kg xylasin, 7.5 mg/kg butorphanol, 9 mg/kg zolazepam, and 9 mg tiletamine) • 3. 20 minutes after D-luciferin (Caliper Life Sciences) injection, the mice were placed in the IVIS instrument (IVIS Spectrum, model 124375R from PerkinElmer, Andor camera IS0825R4582; iKon Living Image version: 4.5.2.18424. Binning factor: 8; Excitation filter: Block; Emission filter: Open; f Number: 1) and pictures were taken with automatic exposure of Luminescence. • 4. Bio-luminescence is expressed as “Total Flux” (photon/second)×10^5.
(§2) The materials and methods were as used in Example 1, except that the administration was intradermal and blue light was used (wavelength between 400 and 540 nm with a peak at around 435 nm from the LumiSource illumination device produced by PCI Biotech AS, with a 13 mW/cm^2 fluence rate—a 6 minute illumination delivers 4.7 J/cm^2). Luciferase activity was assessed as set out in Example 1 except that skin homogenates were used.
The materials and methods were as used in Example 2. Animals were injected at two sites (left or right). IVIS was examined as set out in Example 1. […]

[2] = tested on: thigh muscle of C57BL/6 mice; assay: Intramuscular naked mRNA delivery, luciferase assay in muscle homogenates; type: in vivo
Source text: (§3) Female mice of the strain C57BL/6 (Charles River) were used. Animal identification and conditions of housing, acclimatisation, environment, diet and water was in accordance with the current Standard Operating Procedures at the animal facilities at Oslo University Hospital—The Radium Hospital. Age and weight at start of dosing: 5-6 weeks, 18-20 g. The injection area was shaved before illumination.
(§4) Firefly luciferase mRNA (L-7202—with modified base 5-methoxyuridine (5 moU), and with the TriLink CleanCap™ modification as the capping structure, purchased from TriLink Biotechnologies, San Diego, USA) was used.
(§5) TPCS2a (Amphinex®, PCI Biotech AS, Norway) was used mixed in a volume of 20 μl PBS (e.g. using a 0.000015 μg/μl solution for a 0.0003 μg dose).
(§6) mRNA (in aqueous solution, 20 μl of 0.1 μg/μl from stock solution of 1 μg/μl) in the amounts indicated in the table below were injected into the thigh muscle of each animal, with or without TPCS2a in the amounts indicated.
(§7) […] Animals 7-12 were not illuminated. 20 hours after the injections the animals were analysed by IVIS and assayed for luciferase activity (Luciferase Assay System, Promega, Cat #E1500) in muscle homogenates.
(§8) Muscle homogenates were prepared from frozen tissue samples using a Precelly homogenizer and lysis buffer with phosphatase and protease inhibitors (MSD, Cat. No. R60TX-2, R70AA-1). Protein analysis was performed using the DC Protein Assay (Biorad). Luciferase is expressed as relative units (RLU=relative luminescence units) per mass of protein in the samples.

BL/6 mice = assay: Conclusions from Examples: fold increase (PCI/mRNA alone), IVIS and luciferase assay; type: in vivo; details: illumination 30 seconds after mRNA/photosensitiser injection
Procedure: Good correspondence between the IVIS and luciferase assay results was observed. The fold increase (PCI/mRNA alone) with illumination only 30 seconds after mRNA/photosensitiser injection is higher than has been achieved in earlier experiments in which illumination was conducted 60 minutes after injection (3-5 times improvement). The improvement relative to using no photosensitiser is in the order of 30 fold. Shorter contact times were also effective at very low photosensitiser dose allowing for reduced side effects in subjects.

[3] = tested on: thigh muscle of C57BL/6 mice; assay: Intramuscular naked mRNA delivery, IVIS bio-luminescence imaging of injection sites; type: in vivo
Source text: as §3, §4, §5, §6, §7, §1

BL/6 mouse skin [4] = assay: Intradermal naked mRNA delivery, luciferase assay in skin homogenates; type: in vivo, mice
Procedure: as §8, §2
The materials and methods were as used in Example 2. Luciferase activity was assessed as set out in Example 1 except that skin homogenates were used.
The materials and methods were as used in Example 3 but with even lower doses. Luciferase activity was assessed as set out in Example 1 except that skin homogenates were used.

[5] = Example 6: intramuscular, 2 μg mRNA + 0.0003 or 0.0001 μg TPCS2a, blue light 30 seconds after injection

Substance: tetraphenyl chlorin disulfonate [TPCS2a]
- increase of bio-luminescence of PCI sites vs control sites receiving mRNA only (BL/6 mouse skin [1]): around 7.2 fold
- mean fold of increase for the PCI treated sites vs mRNA only sites (luciferase assay) ([2]; Example 1: intramuscular, 2 μg mRNA + 0.0003 μg TPCS2a, red light 652 nm 1 J/cm^2 5 minutes after injection, 20 hours): 4.9 times
- effectiveness of low photosensitiser dose (luminescence and luciferase activity) ([2]; Example 6: intramuscular, 2 μg mRNA + 0.0001 μg TPCS2a, blue light 30 seconds after injection): highly effective
- luciferase activity of PCI sites vs control sites receiving mRNA only [2, 5]: significantly stronger
- luciferase activity in muscle, effectiveness at lower dose ([2]; Example 7: intramuscular, 2 μg mRNA + 0.0003 μg TPCS2a, blue light 30 seconds after injection): effective
- luciferase activity in muscle, effectiveness by photosensitiser dose ([2]; Example 8: intramuscular, 2 μg mRNA + 0.0003 μg TPCS2a (vs 0.003 and 0.1 μg), blue light 10 minutes after injection): more effective than the higher doses
- increase by PCI (luciferase assay) ([2]; Example 9: intramuscular, 2 μg mRNA + 0.0001 μg TPCS2a, red light 0.3 to 3 J/cm^2, 5 minute interval): 8-9 fold
- effect of PCI (luciferase assay), 10 minute interval ([2]; Example 9: intramuscular, 2 μg mRNA + 0.0001 μg TPCS2a, red light 0.3 to 3 J/cm^2, 10 minute interval): effective but not at the same levels as the 5 minute interval
- improvement of fold increase (PCI/mRNA alone) with illumination 30 seconds after injection over earlier experiments with illumination 60 minutes after injection (BL/6 mice): 3-5 times
- improvement relative to using no photosensitiser (BL/6 mice): ~30 fold
- bio-luminescence of PCI sites vs control sites receiving mRNA only ([3]; Example 1: intramuscular, 2 μg mRNA + 0.0003 μg TPCS2a, red light 1 J/cm^2 5 minutes after injection): significantly stronger luminescence
- bio-luminescence of PCI sites vs control sites receiving mRNA only [3, 5]: significantly stronger luminescence
- bio-luminescence, effect of PCI at very low dose ([3]; Example 10: intramuscular, 2 μg mRNA + 0.000003 μg TPCS2a, red light 1 J/cm^2, 5 minute interval): An effect was observed
- increase of bio-luminescence by PCI ([3]; Example 10: intramuscular, 2 μg mRNA + 0.0001 μg TPCS2a, red light 1 J/cm^2, 5 minute interval): 5 fold
- increase of bio-luminescence by PCI ([3]; Example 10: intramuscular, 2 μg mRNA + 0.0003 μg TPCS2a, red light 1 J/cm^2, 5 minute interval): 7 fold
- enhancement of mRNA delivery (luciferase assay), longer contact times (BL/6 mouse skin [4]; Example 2: intradermal, 2 μg mRNA + 0.003 μg TPCS2a, blue light, 30 or 60 min contact time): much less effective
- enhancement of mRNA delivery (luciferase assay) vs mRNA alone (BL/6 mouse skin [4]; Example 2: intradermal, 2 μg mRNA + 0.003 μg TPCS2a, blue light, 10 minute contact time): about 20 times
- luciferase activity in skin, effectiveness by photosensitiser dose (BL/6 mouse skin [4]; Example 3: intradermal, 2 μg mRNA + 0.003 μg TPCS2a (vs 0.01 and 0.05 μg), blue light 30 seconds after injection): more effective than higher doses
- luciferase activity in skin, effectiveness at lower dose (BL/6 mouse skin [4]; Example 4: intradermal, 2 μg mRNA + 0.0003 μg TPCS2a, blue light 30 seconds after injection): effective
